From patent US20220144847A1, “HETEROCYCLIC COMPOUND, PHARMACEUTICAL COMPOSITION COMPRISING SAME, PREPARATION METHOD THEREFOR, AND USE THEREOF” (Sichuan Kelun-Biotech Biopharmaceutical Co., Ltd., priority 2019, published 2022)
Read-outs that look alike come from different tables or passages of the source.

What was measured:
Type in all cases: biochemical
RET-M918T = RET-M918T (Homo sapiens, UniProt P07949, M918T); assay: RET inhibition experiment (HTRF KinEASE-TK kit), mutant RET-M918T; conditions: read-out: Inhibition rate on RET-M918T
Experimental: Experimental method: […] After incubation at room temperature for 40 min, TK antibody-cryptate and streptavidin-XL665 were added, and the test was performed after incubation at room temperature for 45 min. With the solvent group (DMSO) as the negative control and the buffer group (without RET enzyme) as the blank control, the relative inhibitory activity percentages (i.e., inhibition rates) of different concentrations of the compounds were computed as per the following formula: […] The relative inhibitory activity percentages of different concentrations of the compounds were plotted with respect to the compound concentrations, and the curve was fitted according to a four-parameter model to compute the IC50 value as per the following formula: y=min+(max-min)/(1+(x/IC50)^(-Hillslope)) where y is the relative inhibitory activity percentage, max is the maximum value of the fitted curve, min is the minimum value of the fitted curve, x is the logarithmic concentration of the compound, and Hillslope is the slope of the curve.

VEGFR2 = VEGFR2 (Homo sapiens, UniProt P35968); assay: VEGFR2 inhibition experiment (HTRF KinEASE-TK kit); conditions: for inhibition at 0.03 µM: 30 nM; for inhibition at 0.3 µM: 300 nM
How it was run: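 HTRF KinEASE-TK format: enzyme and compound were preincubated 30 min at room temperature, then substrate and ATP added for 40 min, followed by cryptate antibody/streptavidin-XL665 detection for 45 min. Inhibition was normalised to DMSO and no-enzyme controls; IC50 from a four-parameter fit.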

RET-V804M = RET-V804M (Homo sapiens, UniProt P07949, V804M); assay: RET inhibition experiment (HTRF KinEASE-TK kit), mutant RET-V804M; conditions: for inhibition at 0.1 µM / inhibition at 0.01 µM: read-out: Inhibition rate on RET-V804M; for inhibition at 0.01 µM: 10 nM (Table 2); for IC50: read-out: The IC50 (nM) for inhibiting V804M
How it was run: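 Enzyme was pre-incubated with compound at room temperature for 30 min, then substrate and ATP were added for a 40 min reaction. HTRF signal was read after 45 min with TK antibody-cryptate and streptavidin-XL665. IC50 came from a four-parameter fit of percent inhibition against DMSO and no-enzyme controls.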

[1] = read-out: Inhibition rate on VEGFR2
[2] = compound concentration 100 nM (Table 1)
[3] = 100 nM, read-out: Inhibition rate on VEGFR2

VEGFR2, sequence (P35968 20-1356, species assumed): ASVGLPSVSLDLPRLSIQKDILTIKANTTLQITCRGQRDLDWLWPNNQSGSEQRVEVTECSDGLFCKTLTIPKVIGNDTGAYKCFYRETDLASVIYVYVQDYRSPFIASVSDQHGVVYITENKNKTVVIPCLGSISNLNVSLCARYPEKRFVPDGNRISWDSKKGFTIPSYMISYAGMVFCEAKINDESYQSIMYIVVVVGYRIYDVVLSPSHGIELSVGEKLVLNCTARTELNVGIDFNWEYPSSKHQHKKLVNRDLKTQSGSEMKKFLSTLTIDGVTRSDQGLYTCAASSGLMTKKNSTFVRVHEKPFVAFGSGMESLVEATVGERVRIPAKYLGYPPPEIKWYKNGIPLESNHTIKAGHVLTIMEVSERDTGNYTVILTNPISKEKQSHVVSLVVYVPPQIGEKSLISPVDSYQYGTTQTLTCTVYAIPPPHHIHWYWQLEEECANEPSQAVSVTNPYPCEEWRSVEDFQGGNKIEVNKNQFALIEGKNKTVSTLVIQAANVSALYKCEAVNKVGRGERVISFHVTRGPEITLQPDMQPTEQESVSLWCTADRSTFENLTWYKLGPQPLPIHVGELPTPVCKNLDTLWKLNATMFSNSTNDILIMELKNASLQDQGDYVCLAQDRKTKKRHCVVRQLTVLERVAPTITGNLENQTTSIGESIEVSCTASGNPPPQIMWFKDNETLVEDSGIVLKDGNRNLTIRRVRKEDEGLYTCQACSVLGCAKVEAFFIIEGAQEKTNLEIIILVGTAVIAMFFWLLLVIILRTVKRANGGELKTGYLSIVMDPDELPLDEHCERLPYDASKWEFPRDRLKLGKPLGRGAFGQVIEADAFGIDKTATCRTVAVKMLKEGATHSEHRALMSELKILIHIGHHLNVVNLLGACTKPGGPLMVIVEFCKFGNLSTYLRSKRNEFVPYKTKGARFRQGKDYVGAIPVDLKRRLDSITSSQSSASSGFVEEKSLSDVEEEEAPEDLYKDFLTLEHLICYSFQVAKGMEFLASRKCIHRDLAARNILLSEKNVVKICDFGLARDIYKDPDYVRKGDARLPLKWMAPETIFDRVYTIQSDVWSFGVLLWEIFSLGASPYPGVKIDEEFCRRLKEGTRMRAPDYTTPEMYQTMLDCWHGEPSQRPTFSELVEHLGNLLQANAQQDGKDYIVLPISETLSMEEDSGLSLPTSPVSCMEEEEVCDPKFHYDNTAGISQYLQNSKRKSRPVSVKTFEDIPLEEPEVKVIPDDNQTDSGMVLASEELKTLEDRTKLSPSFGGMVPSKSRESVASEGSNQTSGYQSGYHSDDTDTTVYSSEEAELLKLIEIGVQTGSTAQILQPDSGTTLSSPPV
RET-V804M, sequence (P07949 29-1114 V804M): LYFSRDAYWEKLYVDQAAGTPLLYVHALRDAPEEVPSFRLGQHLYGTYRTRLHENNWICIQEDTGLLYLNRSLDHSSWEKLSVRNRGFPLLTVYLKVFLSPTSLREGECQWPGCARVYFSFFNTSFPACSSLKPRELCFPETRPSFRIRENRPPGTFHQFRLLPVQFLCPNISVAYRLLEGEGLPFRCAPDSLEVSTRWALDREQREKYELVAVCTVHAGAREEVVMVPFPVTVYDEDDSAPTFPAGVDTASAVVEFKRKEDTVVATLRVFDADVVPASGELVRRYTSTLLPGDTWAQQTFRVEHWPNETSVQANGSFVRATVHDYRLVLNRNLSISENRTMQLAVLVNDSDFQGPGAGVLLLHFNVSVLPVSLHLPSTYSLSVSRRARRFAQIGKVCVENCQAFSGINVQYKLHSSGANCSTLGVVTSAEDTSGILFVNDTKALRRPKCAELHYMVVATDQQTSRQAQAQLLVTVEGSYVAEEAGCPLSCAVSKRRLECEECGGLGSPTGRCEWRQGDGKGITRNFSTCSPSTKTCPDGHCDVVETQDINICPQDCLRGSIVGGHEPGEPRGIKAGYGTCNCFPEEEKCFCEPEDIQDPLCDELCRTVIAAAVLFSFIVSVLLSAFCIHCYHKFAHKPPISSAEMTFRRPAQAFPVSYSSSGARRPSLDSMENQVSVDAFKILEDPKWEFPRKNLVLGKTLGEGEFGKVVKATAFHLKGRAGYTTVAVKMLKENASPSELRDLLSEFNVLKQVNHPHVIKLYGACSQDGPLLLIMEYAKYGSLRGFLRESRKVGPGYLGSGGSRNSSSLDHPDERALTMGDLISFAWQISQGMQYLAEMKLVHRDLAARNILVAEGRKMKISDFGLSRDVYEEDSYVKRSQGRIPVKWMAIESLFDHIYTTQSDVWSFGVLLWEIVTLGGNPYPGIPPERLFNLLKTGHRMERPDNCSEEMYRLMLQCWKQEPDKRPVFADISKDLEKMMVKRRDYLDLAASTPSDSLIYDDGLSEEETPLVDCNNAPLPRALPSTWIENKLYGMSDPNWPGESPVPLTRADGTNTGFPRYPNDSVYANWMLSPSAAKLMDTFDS
RET-M918T, sequence (P07949 29-1114 M918T): as the sequence (P07949 29-1114 V804M) above, with M776V, M890T counted along it

Cc1cc(Nc2cc(C)[nH]n2)nc(-c2ccc(N3CC4CC(C3)N4Cc3ccccc3)nc2)n1 [Compound 1, 2-(6-(6-benzyl-3,6-diazabicyclo[3.1.1]heptan-3-yl)pyridin-3-yl)-6-methyl-N-(5-methyl-1H-pyrazol-3-yl)pyrimidin-4-amine]
inhibition at 0.1 µM (RET-M918T): 33% | inhibition at 0.1 µM (VEGFR2; [1]): 38% | inhibition at 0.1 µM (RET-V804M): 86%

Cc1cc(Nc2cc(C)[nH]n2)nc(-c2ccc(N3CC4CC(C3)N4Cc3ccc(Cl)nc3)nc2)n1 [Compound 3, 2-(6-(6-((6-chloropyridin-3-yl)methyl)-3,6-diazabicyclo[3.1.1]heptan-3-yl)pyridin-3-yl)-6-methyl-N-(5-methyl-1H-pyrazol-3-yl)pyrimidin-4-amine]
inhibition at 0.1 µM (RET-M918T; [2]): 34% | inhibition at 0.1 µM (VEGFR2; [3]): 14% | inhibition at 0.1 µM (RET-V804M; [2]): 86%

Cc1cc(Nc2cc(C)[nH]n2)nc(-c2ccc(N3CC4CC(C3)N4Cc3cnc(C)s3)nc2)n1 [Compound 15, 6-methyl-N-(5-methyl-1H-pyrazol-3-yl)-2-(6-(6-((2-methylthiazol-5-yl)methyl)-3,6-diazabicyclo[3.1.1]heptan-3-yl)pyridin-3-yl)pyrimidin-4-amine]
inhibition at 0.1 µM (VEGFR2; [3]): 29% | inhibition at 0.1 µM (RET-V804M; 100 nM (Table 2)): 91%

Cc1cc(Nc2cc(C)[nH]n2)nc(-c2ccc(N3CC4CC(C3)N4Cc3ccc(-c4cscn4)nc3)nc2)n1 [Compound 129, 6-methyl-N-(5-methyl-1H-pyrazol-3-yl)-2-(6-(6-((6-(thiazol-4-yl)pyridin-3-yl)methyl)-3,6-diazabicyclo[3.1.1]heptan-3-yl)pyridin-3-yl)pyrimidin-4-amine]
inhibition at 0.03 µM (VEGFR2; [1]): 52% | inhibition at 0.01 µM (RET-V804M): 84%

Cc1cc(Nc2cc(C)[nH]n2)nc(-c2ccc(N3CC4CC(C3)N4Cc3ccc(-n4cnc(F)c4)nc3)nc2)n1 [Compound 64, 2-(6-(6-((6-(4-fluoro-1H-imidazol-1-yl)pyridin-3-yl)methyl)-3,6-diazabicyclo[3.1.1]heptan-3-yl)pyridin-3-yl)-6-methyl-N-(5-methyl-1H-pyrazol-3-yl)pyrimidin-4-amine]
inhibition at 0.1 µM (VEGFR2; [3]): 38% | inhibition at 0.01 µM (RET-V804M): 79%

Cc1cc(Nc2cc(C3CC3)[nH]n2)nc(-c2ccc(N3CC4CC(C3)N4Cc3ccc(-n4cc(F)cn4)nc3)nc2)n1 [Compound 10, N-(5-cyclopropyl-1H-pyrazol-3-yl)-2-(6-(6-((6-(4-fluoro-1H-pyrazol-1-yl)pyridin-3-yl)methyl)-3,6-diazabicyclo[3.1.1]heptan-3-yl)pyridin-3-yl)-6-methylpyrimidin-4-amine]
inhibition at 0.3 µM (VEGFR2; [1]): 69% | IC50 (RET-V804M): 3.97 ± 0.3 nM

Cc1cc(Nc2cc(C)[nH]n2)nc(-c2ccc(N3CC4CC(C3)N4Cc3ccc(-n4nc(C)cc4C)nc3)nc2)n1 [Compound 11, 2-(6-(6-((6-(3,5-dimethyl-1H-pyrazol-1-yl)pyridin-3-yl)methyl)-3,6-diazabicyclo[3.1.1]heptan-3-yl)pyridin-3-yl)-6-methyl-N-(5-methyl-1H-pyrazol-3-yl)pyrimidin-4-amine]
IC50 (VEGFR2; read-out: IC50 for inhibiting VEGFR2): 158 ± 25.1 nM | IC50 (RET-V804M): 7.22 ± 0.58 nM

COc1ccc(CN2C3CC2CN(c2ccc(-c4nc(C)cc(Nc5cc(C)[nH]n5)n4)cn2)C3)cn1 [Compound 4, 2-(6-(6-((6-methoxypyridin-3-yl)methyl)-3,6-diazabicyclo[3.1.1]heptan-3-yl)pyridin-3-yl)-6-methyl-N-(5-methyl-1H-pyrazol-3-yl)pyrimidin-4-amine]
inhibition at 0.1 µM (RET-M918T; [2]): 69% | inhibition at 1 µM (VEGFR2; 1000 nM, read-out: Inhibition rate on VEGFR2): 52%

Cc1cc(Nc2cc(C)[nH]n2)nc(-c2ccc(N3CC4CC(C3)N4Cc3ccc(-c4cc(F)cnc4C)nc3)nc2)n1 [Compound 8, 2-(6-(6-((5′-fluoro-2′-methyl-[2,3′-dipyridyl]-5-yl)methyl)-3,6-diazabicyclo[3.1.1]heptan-3-yl)pyridin-3-yl)-6-methyl-N-(5-methyl-1H-pyrazol-3-yl)pyrimidin-4-amine]
inhibition at 0.3 µM (VEGFR2; [1]): 5% | inhibition at 0.01 µM (RET-V804M): 46%

Cc1cc(Nc2cc(C)[nH]n2)nc(-c2ccc(N3CC4CC(C3)N4Cc3ccc(-n4cccn4)cc3)nc2)n1 [Compound 86, 2-(6-(6-(4-(1H-pyrazol-1-yl)benzyl)-3,6-diazabicyclo[3.1.1]heptan-3-yl)pyridin-3-yl)-6-methyl-N-(5-methyl-1H-pyrazol-3-yl)pyrimidin-4-amine]
inhibition at 0.1 µM (VEGFR2; [3]): 52% | inhibition at 0.01 µM (RET-V804M): 64%

Cc1cnn(-c2ccc(CN3C4CC3CN(c3ccc(-c5nc(C)cc(Nc6cc(C)[nH]n6)n5)cn3)C4)cn2)c1 [Compound 62, 6-methyl-2-(6-(6-((6-(4-methyl-1H-pyrazol-1-yl)pyridin-3-yl)methyl)-3,6-diazabicyclo[3.1.1]heptan-3-yl)pyridin-3-yl)-N-(5-methyl-1H-pyrazol-3-yl)pyrimidin-4-amine]
inhibition at 0.1 µM (VEGFR2; [3]): 62% | IC50 (RET-V804M): 4.53 ± 1.23 nM

Cc1ccc(OC2CCN(c3ccc(-c4nc(C)cc(Nc5cc(C)[nH]n5)n4)cn3)CC2)cn1 [Compound 119, 6-methyl-N-(5-methyl-1H-pyrazol-3-yl)-2-(6-(4-((6-methylpyridin-3-yl)oxy)piperidin-1-yl)pyridin-3-yl)pyrimidin-4-amine]
inhibition at 0.1 µM (VEGFR2; [3]): -7% | IC50 (RET-V804M): 14.2 ± 1.27 nM

Cc1cc(Nc2cc(C)[nH]n2)nc(-c2ccc(N3CC4CC(C3)N4Cc3ccc(-c4ccc(C)o4)nc3)nc2)n1 [Compound 133, 6-methyl-N-(5-methyl-1H-pyrazol-3-yl)-2-(6-(6-((6-(5-methylfuran-2-yl)pyridin-3-yl)methyl)-3,6-diazabicyclo[3.1.1]heptan-3-yl)pyridin-3-yl)pyrimidin-4-amine]
inhibition at 0.05 µM (VEGFR2; 50 nM, read-out: Inhibition rate on VEGFR2): 28% | inhibition at 0.01 µM (RET-V804M): 82%

Cc1cc(Nc2cc(C)[nH]n2)nc(-c2ccc(N3CC4CC(C3)N4Cc3ccc(-c4ccc[nH]4)nc3)nc2)n1 [Compound 123, 2-(6-(6-((6-(1H-pyrrol-2-yl)pyridin-3-yl)methyl)-3,6-diazabicyclo[3.1.1]heptan-3-yl)pyridin-3-yl)-6-methyl-N-(5-methyl-1H-pyrazol-3-yl)pyrimidin-4-amine]
inhibition at 0.03 µM (VEGFR2; [1]): 56% | IC50 (RET-V804M): 1.88 ± 0.11 nM

Cc1cc(Nc2cc(C)[nH]n2)nc(-c2ccc(N3CC4CC(C3)N4Cc3ccc(-n4cc(F)cn4)nc3)nc2)c1 [Compound 6, 6′-(6-((6-(4-fluoro-1H-pyrazol-1-yl)pyridin-3-yl)methyl)-3,6-diazabicyclo[3.1.1]heptan-3-yl)-4-methyl-N-(5-methyl-1H-pyrazol-3-yl)-[2,3′-dipyridyl]-6-amine]
inhibition at 0.1 µM (VEGFR2; [3]): -11% | inhibition at 0.01 µM (RET-V804M): 83%

Cc1cc(Nc2cc(C)[nH]n2)nc(-c2ccc(N3CC4CC(C3)N4Cc3ccc(-c4ccn[nH]4)nc3)nc2)n1 [Compound 132, 2-(6-(6-((6-(1H-pyrazol-5-yl)pyridin-3-yl)methyl)-3,6-diazabicyclo[3.1.1]heptan-3-yl)pyridin-3-yl)-6-methyl-N-(5-methyl-1H-pyrazol-3-yl)pyrimidin-4-amine]
inhibition at 0.03 µM (VEGFR2; [1]): 31% | inhibition at 0.01 µM (RET-V804M): 84%

COc1ccc(CN2C3CC2CN(c2ccc(-c4nc(C)cc(Nc5cc(C)[nH]n5)n4)cn2)C3)cc1 [Compound 2, 2-(6-(6-(4-methoxybenzyl)-3,6-diazabicyclo[3.1.1]heptan-3-yl)pyridin-3-yl)-6-methyl-N-(5-methyl-1H-pyrazol-3-yl)pyrimidin-4-amine]
inhibition at 0.1 µM (RET-M918T): 51% | inhibition at 0.1 µM (VEGFR2; [1]): 29% | inhibition at 0.1 µM (RET-V804M): 93%
